Experimental data: patent USRE48097E1, “Cephem compounds, their production and use” (priority 2015, dated 2020)
In brackets after ≈: the same amount, converted by molar mass. Where two headings read alike, the source gives them in different places.

What was measured:
[1] = tested on: E. coli 2671; experiment: MIC against E. coli 2671; format: cell-based; settings: Table 2, E. coli 2671, VIM-19
Text: (§1) Without limitation, the present cephem compounds alone, or in combination with one or more β-lactamase inhibitors, may provide improved antibacterial efficacy, particularly in antibiotic-resistant bacterial strains. It is believed that the present compounds may be structurally different from known compounds and, as a result, may be more basic in nature. It is an advantage that the present compounds may extend the spectrum of effective bacterial compounds, particularly against previously-resistant bacteria (e.g. ESKAPE organisms), and/or gram negative bacteria, without significant side effects. In a preferred embodiment, the present cephem compound may comprise reference compound ceftazidime, which may be used alone, or in combination with one or more β-lactamase inhibitors, such as NXL-104. As shown, the foregoing composition was tested for minimum inhibitory concentration (MIC, μg/mL) against bacteria listed in Tables 2-3.

[2] = tested on: K. pneumoniae 4105; experiment: MIC against K. pneumoniae 4105; format: cell-based; settings: K. pneumoniae 4105, KPC-3, TEM-1, SHV-11
Method: (§2) As shown, the foregoing composition was tested for minimum inhibitory concentration (MIC, μg/mL) against bacteria listed in Tables 2-3.

[3] = tested on: E. cloacae 2706; experiment: MIC against E. cloacae 2706; format: cell-based; settings: Table 3, E. cloacae 2706, VIM-1, KPC-3
Method: as §2

[4] = tested on: K. baumanii 4091; experiment: MIC against K. baumanii 4091; format: cell-based; settings: Table 2, K. baumanii 4091, OXA-23
Text: as §1

[5] = tested on: S. pneumoniae 2403; experiment: MIC against S. pneumoniae 2403; format: cell-based; settings: Table 2, S. pneumoniae 2403, Pen S
Text: as §1

[6] = tested on: E. coli 4102; experiment: MIC against E. coli 4102; format: cell-based; settings: Table 2, E. coli 4102, CTX-M-14
Text: as §1

[7] = tested on: S. aureus3137; experiment: MIC against S. aureus3137; format: cell-based, S. aureus; settings: Table 2, S. aureus3137, MSSA
Text: as §1

[8] = tested on: E. cloacae 2705; experiment: MIC against E. cloacae 2705; format: cell-based; settings: Table 3, E. cloacae 2705, VIM-1, KPC-3type
Method: as §2

[9] = tested on: E. coli 4080; experiment: MIC against E. coli 4080; format: cell-based; settings: Table 2, E. coli 4080, TEM-10
Text: as §1

[10] = tested on: K. baumanii 2579; experiment: MIC against K. baumanii 2579; format: cell-based; settings: Table 2, K. baumanii 2579, OXA-25
Text: as §1

[11] = tested on: S. aureus 3147; experiment: MIC against S. aureus 3147; format: cell-based; settings: Table 2, S. aureus 3147, MSSA
Text: as §1

[12] = tested on: K. pneumoniae 4107; experiment: MIC against K. pneumoniae 4107; format: cell-based; settings: K. pneumoniae 4107, KPC-2, TEM-1, SHV-11
Method: as §2

[13] = tested on: E. cloacae 2689; experiment: MIC against E. cloacae 2689; format: cell-based; settings: Table 3, E. cloacae 2689, KPC-2
Method: as §2

[14] = tested on: S. pneumoniae 2392; experiment: MIC against S. pneumoniae 2392; format: cell-based; settings: Table 2, S. pneumoniae 2392, Pen R
Text: as §1

[15] = tested on: E. cloacae 2710; experiment: MIC against E. cloacae 2710; format: cell-based; settings: Table 3, E. cloacae 2710, KPC-3, VIM-1
Method: as §2

[16] = tested on: K. pneumoniae 4104; experiment: MIC against K. pneumoniae 4104; format: cell-based; settings: K. pneumoniae 4104, KPC-3, TEM-1
Method: as §2

[17] = tested on: E. coli 4098; experiment: MIC against E. coli 4098; format: cell-based; settings: Table 2, E. coli 4098, CTX-M-15, TEM-1
Text: as §1

[18] = tested on: S. aureus 3136; experiment: MIC against S. aureus 3136; format: cell-based; settings: Table 2, S. aureus 3136, MSSA
Text: as §1

[19] = tested on: K. pneumoniae 4088; experiment: MIC against K. pneumoniae 4088; format: cell-based; settings: Table 3, K. pneumoniae 4088, KPC-3
Method: as §2

[20] = tested on: E. cloacae 2704; experiment: MIC against E. cloacae 2704; format: cell-based; settings: Table 2, E. cloacae 2704, P99
Text: as §1

[21] = tested on: E. cloacae 566; experiment: MIC against E. cloacae 566; format: cell-based; settings: Table 2, E. cloacae 566, Caz R, IMP S
Text: as §1

[22] = tested on: E. coli 2666; experiment: MIC against E. coli 2666; format: cell-based; settings: Table 3, E. coli 2666, KPC-2
Method: as §2

[23] = tested on: M. morganii 2409; experiment: MIC against M. morganii 2409; format: cell-based; settings: Table 2, M. morganii 2409, High level cephase, β-Lactamase producing
Text: as §1

[24] = tested on: E. cloacae 2709; experiment: MIC against E. cloacae 2709; format: cell-based; settings: Table 3, E. cloacae 2709, KPC-3, VIM-1
Method: as §2

[25] = Escherichia coli, alone, read-out: MIC
[26] = Klebsiella pneumoniae, 4105, Table 2, alone, read-out: MIC
[27] = Klebsiella pneumoniae, 4105, Table 3, alone, read-out: MIC
[28] = Table 2, in combination with NXL-104
[29] = Table 3, in combination with NXL-104
[30] = Enterobacter cloacae, alone, read-out: MIC
[31] = Streptococcus pneumoniae, alone, read-out: MIC
[32] = Staphylococcus aureus, alone, read-out: MIC
[33] = Klebsiella pneumoniae, 4107, Table 2, alone, read-out: MIC
[34] = Klebsiella pneumoniae, 4107, Table 3, alone, read-out: MIC
[35] = Klebsiella pneumoniae, 4104, Table 2, alone, read-out: MIC
[36] = Klebsiella pneumoniae, 4104, Table 3, alone, read-out: MIC
[37] = Klebsiella pneumoniae, alone, read-out: MIC
[38] = Morganella morganii, alone, read-out: MIC

## CC(C)(O/N=C(\C(=O)N[C@@H]1C(=O)N2C(C(=O)[O-])=C(C[n+]3ccc4c(ccn4Cc4cc(C(=N)N)cs4)c3)CS[C@H]12)c1csc(N)n1)C(=O)O [Example 5, (6R,7R)-7-{[(2Z)-2-(2-Amino-1,3-thiazol-4-yl)-2-{[(2-carboxypropan-2-yl)oxy]imino}acetyl]amino}-3-({1-[(4-carbamimidoylthiophen-2-yl)methyl]-1H-pyrrolo[3,2-c]pyridin-5-ium-5-yl}methyl)-8-oxo-5-thia-1-azabicyclo[4.2.0]oct-2-ene-2-carboxylate]
[1]; [25]
  MIC: 16 µg/mL
[1]; in combination with NXL-104
  MIC: 16.00 µg/mL
[2]; [26]
  MIC: 32 µg/mL (≈ 44.2 µM)
[2]; [27]
  MIC: 32 µg/mL (≈ 44.2 µM)
[2]; [28]
  MIC: 1.00 µg/mL
[2]; [29]
  MIC: 1 µg/mL
[3]; [30]
  MIC: > 32 µg/mL
[3]; in combination with NXL-104
  MIC: 32 µg/mL
[4]; alone, read-out: MIC
  MIC: 8 µg/mL
[4]; in combination with NXL-104
  MIC: 2.00 µg/mL
[5]; [31]
  MIC: ≤ 0.06 µg/mL
[5]; in combination with NXL-104
  MIC: ≤0.06 µg/mL
[6]; [25]
  MIC: 1 µg/mL
[6]; in combination with NXL-104
  MIC: ≤0.06 µg/mL
[7]; [32]
  MIC: 32 µg/mL
[7]; in combination with NXL-104
  MIC: 4.00 µg/mL
[8]; [30]
  MIC: > 32 µg/mL
[8]; in combination with NXL-104
  MIC: >32 µg/mL
[9]; [25]
  MIC: 16 µg/mL
[9]; in combination with NXL-104
  MIC: 0.50 µg/mL
[10]; alone, read-out: MIC
  MIC: > 32 µg/mL
[10]; in combination with NXL-104
  MIC: 8.00 µg/mL
[11]; [32]
  MIC: 2 µg/mL
[11]; in combination with NXL-104
  MIC: 2.00 µg/mL
[12]; [33]
  MIC: 32 µg/mL (≈ 44.2 µM)
[12]; [34]
  MIC: 16 µg/mL (≈ 22.1 µM)
[12]; [28]
  MIC: 2.00 µg/mL
[12]; [29]
  MIC: 1 µg/mL
[13]; [30]
  MIC: 16 µg/mL (≈ 22.1 µM)
[13]; in combination with NXL-104
  MIC: 0.5 µg/mL
[14]; [31]
  MIC: 2 µg/mL
[14]; in combination with NXL-104
  MIC: 1.00 µg/mL
[15]; [30]
  MIC: > 32 µg/mL
[15]; in combination with NXL-104
  MIC: >32 µg/mL
[16]; [35]
  MIC: 32 µg/mL (≈ 44.2 µM)
[16]; [36]
  MIC: 16 µg/mL (≈ 22.1 µM)
[16]; [28]
  MIC: 2.00 µg/mL
[16]; [29]
  MIC: 0.5 µg/mL
[17]; [25]
  MIC: > 32 µg/mL
[17]; in combination with NXL-104
  MIC: 0.12 µg/mL
[18]; [32]
  MIC: 2 µg/mL
[18]; in combination with NXL-104
  MIC: 2.00 µg/mL
[19]; [37]
  MIC: 32 µg/mL (≈ 44.2 µM)
[19]; in combination with NXL-104
  MIC: 2 µg/mL
[20]; [30]
  MIC: 16 µg/mL
[20]; in combination with NXL-104
  MIC: 2.00 µg/mL
[21]; [30]
  MIC: 2 µg/mL
[21]; in combination with NXL-104
  MIC: 0.50 µg/mL
[22]; [25]
  MIC: 16 µg/mL (≈ 22.1 µM)
[22]; in combination with NXL-104
  MIC: 1 µg/mL
[23]; [38]
  MIC: 16 µg/mL
[23]; in combination with NXL-104
  MIC: 0.50 µg/mL
[24]; [30]
  MIC: 32 µg/mL (≈ 44.2 µM)
[24]; in combination with NXL-104
  MIC: 4 µg/mL

## CC(C)(O/N=C(\C(=O)N[C@@H]1C(=O)N2C(C(=O)[O-])=C(C[n+]3ccc4c(ccn4Cc4cc(C(=N)N)co4)c3)CS[C@H]12)c1csc(N)n1)C(=O)O [Example 6, (6R,7R)-7-{[(2Z)-2-(2-Amino-1,3-thiazol-4-yl)-2-{[(2-carboxypropan-2-yl)oxy]imino}acetyl]amino}-3-({1-[(4-carbamimidoylfuran-2-yl)methyl]-1H-pyrrolo[3,2-c]pyridin-5-ium-5-yl}methyl)-8-oxo-5-thia-1-azabicyclo[4.2.0]oct-2-ene-2-carboxylate]
[1]; [25]
  MIC: 32 µg/mL
[1]; in combination with NXL-104
  MIC: 32.00 µg/mL
[2]; [26]
  MIC: 32 µg/mL (≈ 45.2 µM)
[2]; [27]
  MIC: 32 µg/mL (≈ 45.2 µM)
[2]; [28]
  MIC: 1.00 µg/mL
[2]; [29]
  MIC: 2 µg/mL
[3]; [30]
  MIC: > 32 µg/mL
[3]; in combination with NXL-104
  MIC: 32 µg/mL
[4]; alone, read-out: MIC
  MIC: 16 µg/mL
[4]; in combination with NXL-104
  MIC: 4.00 µg/mL
[5]; [31]
  MIC: ≤ 0.06 µg/mL
[5]; in combination with NXL-104
  MIC: ≤0.06 µg/mL
[6]; [25]
  MIC: 2 µg/mL
[6]; in combination with NXL-104
  MIC: 0.12 µg/mL
[7]; [32]
  MIC: 32 µg/mL
[7]; in combination with NXL-104
  MIC: 8.00 µg/mL
[8]; [30]
  MIC: > 32 µg/mL
[8]; in combination with NXL-104
  MIC: >32 µg/mL
[9]; [25]
  MIC: 16 µg/mL
[9]; in combination with NXL-104
  MIC: 0.50 µg/mL
[10]; alone, read-out: MIC
  MIC: > 32 µg/mL
[10]; in combination with NXL-104
  MIC: 16.00 µg/mL
[11]; [32]
  MIC: 4 µg/mL
[11]; in combination with NXL-104
  MIC: 4.00 µg/mL
[12]; [33]
  MIC: 32 µg/mL (≈ 45.2 µM)
[12]; [34]
  MIC: 16 µg/mL (≈ 22.6 µM)
[12]; [28]
  MIC: 2.00 µg/mL
[12]; [29]
  MIC: 1 µg/mL
[13]; [30]
  MIC: 16 µg/mL (≈ 22.6 µM)
[13]; in combination with NXL-104
  MIC: 1 µg/mL
[14]; [31]
  MIC: 2 µg/mL
[14]; in combination with NXL-104
  MIC: 2.00 µg/mL
[15]; [30]
  MIC: > 32 µg/mL
[15]; in combination with NXL-104
  MIC: >32 µg/mL
[16]; [35]
  MIC: 32 µg/mL (≈ 45.2 µM)
[16]; [36]
  MIC: 32 µg/mL (≈ 45.2 µM)
[16]; [28]
  MIC: 2.00 µg/mL
[16]; [29]
  MIC: 0.5 µg/mL
[17]; [25]
  MIC: 32 µg/mL
[17]; in combination with NXL-104
  MIC: 0.12 µg/mL
[18]; [32]
  MIC: 4 µg/mL
[18]; in combination with NXL-104
  MIC: 4.00 µg/mL
[19]; [37]
  MIC: > 32 µg/mL
[19]; in combination with NXL-104
  MIC: 2 µg/mL
[20]; [30]
  MIC: 32 µg/mL
[20]; in combination with NXL-104
  MIC: 1.00 µg/mL
[21]; [30]
  MIC: 4 µg/mL
[21]; in combination with NXL-104
  MIC: 0.50 µg/mL
[22]; [25]
  MIC: 16 µg/mL (≈ 22.6 µM)
[22]; in combination with NXL-104
  MIC: 1 µg/mL
[23]; [38]
  MIC: 16 µg/mL
[23]; in combination with NXL-104
  MIC: 1.00 µg/mL
[24]; [30]
  MIC: 32 µg/mL (≈ 45.2 µM)
[24]; in combination with NXL-104
  MIC: 4 µg/mL
